Where two headings read alike, the source gives them in different places.
What was measured:
[1] = test system: Klenow-fragment of Chy DNA pol I; test: Primer extension with modified dNTPs, Chy Klenow polymerase; type: biochemical, Carboxydothermus hydrogenoformans; details: template NucT15
Tgo exo^− polymerase = type: biochemical, Thermococcus species
Vent exo^− polymerase = Vent exo^− polymerase (Thermococcus litoralis, UniProt P30317, D141A/DEL1082-1471/DEL495-1032/E143A); test: Primer extension with modified dNTPs, Vent exo- polymerase; type: biochemical, Thermococcus species; details: template NucT15 (18 possible)
Vent exo^− polymerase, sequence (P30317 with tags, fused parts or gaps D141A/DEL1082-1471/DEL495-1032/E143A): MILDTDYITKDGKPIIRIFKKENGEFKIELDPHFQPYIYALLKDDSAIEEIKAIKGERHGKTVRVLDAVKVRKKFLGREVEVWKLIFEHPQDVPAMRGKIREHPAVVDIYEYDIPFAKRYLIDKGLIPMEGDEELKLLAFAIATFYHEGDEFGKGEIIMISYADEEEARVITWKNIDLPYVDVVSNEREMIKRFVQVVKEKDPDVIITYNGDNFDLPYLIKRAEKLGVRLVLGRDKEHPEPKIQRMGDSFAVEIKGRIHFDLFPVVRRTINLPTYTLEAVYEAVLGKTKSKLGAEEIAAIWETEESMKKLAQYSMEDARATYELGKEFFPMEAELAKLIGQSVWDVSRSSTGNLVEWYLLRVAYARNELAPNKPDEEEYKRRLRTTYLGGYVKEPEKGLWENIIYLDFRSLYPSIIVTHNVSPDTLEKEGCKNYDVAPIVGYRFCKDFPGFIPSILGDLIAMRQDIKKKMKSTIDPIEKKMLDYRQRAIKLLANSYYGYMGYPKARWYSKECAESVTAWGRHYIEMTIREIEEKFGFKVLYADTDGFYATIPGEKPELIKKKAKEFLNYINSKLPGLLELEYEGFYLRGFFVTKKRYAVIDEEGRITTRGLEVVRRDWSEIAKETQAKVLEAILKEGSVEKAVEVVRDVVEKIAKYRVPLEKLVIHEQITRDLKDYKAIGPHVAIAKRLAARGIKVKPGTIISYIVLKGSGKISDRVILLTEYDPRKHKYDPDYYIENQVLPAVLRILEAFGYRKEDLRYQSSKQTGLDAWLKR

Molecule: Cc1c(CC(=O)NCCCCCC(=O)NC/C=C/c2cn([C@H]3C[C@H](O)[C@@H](COP(=O)(O)OP(=O)(O)OP(=O)(O)O)O3)c(=O)[nH]c2=O)c(=O)oc2cc(N)ccc12 [AMCA-6-dUTP]
- substrate activity [1]: high substrate activity
- elongation of Hex7c7Gd stretch with dUTP derivative (Tgo exo^− polymerase): complete elongation

Molecule: O=C(CCCCCNC(=O)CCCNC(=O)CCCC[C@@H]1SC[C@@H]2NC(=O)N[C@@H]21)NC/C=C/c1cn([C@H]2C[C@H](O)[C@@H](COP(=O)(O)OP(=O)(O)OP(=O)(O)O)O2)c(=O)[nH]c1=O [Biotin-16-dUTP]
- elongation of Hex7c7Gd stretch with dUTP derivative (Tgo exo^− polymerase): a high molecular weight product is formed
- insertions in neighbouring positions (Tgo exo^− polymerase): 18
- product at lower polymerase concentration (Tgo exo^− polymerase): full length products were detectable

Molecule: CCCCC#Cc1cn([C@H]2C[C@H](O)[C@@H](COP(=O)(O)OP(=O)(O)OP(=O)(O)O)O2)c2ncnc(N)c12 [Hex^7c^7Ad, 7-Hexinyl-7-Desaza-dATP]
- adjacent positions into which derivative was incorporated (Tgo exo^− polymerase): 15

Molecule: CCCCC#Cc1cn([C@H]2C[C@H](O)[C@@H](COP(=O)(O)OP(=O)(O)OP(=O)(O)O)O2)c2nc(N)[nH]c(=O)c12 [Hex^7c^7Gd, 7-Hexinyl-7-desaza-dGTP]
- consecutive incorporations (Tgo exo^− polymerase): five
- subsequent positions polymerized (Tgo exo^− polymerase): up to 21

Molecule: Cy5-10-dUTP
- positions inserted (Vent exo^− polymerase): 13

Molecule: DIG-11-dUTP
- product at lower polymerase concentration (Tgo exo^− polymerase): full length products were detectable
- substrate activity / incorporation (Tgo exo^− polymerase): high substrate activity

Molecule: Fluorescein-12-dUTP
- elongation of Hex7c7Gd stretch with dUTP derivative (Tgo exo^− polymerase; template NucT3, 50 μM each, 0,1 and 1 unit polymerase): complete elongation
- product at lower polymerase concentration (Tgo exo^− polymerase; template NucT15, 0,1 unit/reaction): full length products were detectable

Molecule: Rhodamin-green-5(6)-carboxyamido-[5-(3-aminoallyl)-2′desoxy-uridin-5′-triphosphate] [Rhodamine-green-dUTP]
- insertions in neighbouring positions (Tgo exo^− polymerase): 15-16

Molecule: Rhodamin-green-5(6)-carboxyamido-ε-aminocaproyl-[5-(3-aminoallyl)-2′desoxy-uridin-5′-triphosphate] [Rhodamine-green-X-dUTP]
- insertions in neighbouring positions (Tgo exo^− polymerase): up to 18
- major products (number of insertions) (Tgo exo^− polymerase): 13-17
- substrate activity / incorporation (Tgo exo^− polymerase): very good substrate for the polymerase

Molecule: TMR-6-dUTP [TM-Rhodamine-dUTP]
- positions inserted (Vent exo^− polymerase): 14
